Experimental data reported in patent publication US4910194A, “Thienotriazolodiazepine compounds and pharmaceutical uses thereof” (Yoshitomi Pharmaceutical Industries, Ltd., priority 1988, dated 1990).
≈ marks a conversion by molar mass, not a printed value.

Tests used:
PAF = conditions: literature; cited from earlier work
[1] = test system: PAF-induced platelet aggregation; assay: Inhibitory effect on platelet aggregation in rabbits (in vitro test); assay type: cell-based; conditions: Oryctolagus cuniculus, rabbit PRP, PAF 1.8×10^-7 M, 37° C., read-out: Inhibition of PAF-induced platelet aggregation, IC50
Procedure: Blood samples to which was added 0.1 volume of 3.8% sodium citrate were collected from rabbits. Platelet rich plasma (PRP) was prepared by centrifuging the blood sample at 200×g for 10 minutes, and platelet poor plasma (PPP) was prepared by centrifuging the remaining blood sample at 1000×g for 10 minutes.
Aggregation ability was measured with a turbidimetric device (6-channel NKK Hematracer 1, model PAT-6A) according to the method of G. V. R. Born described in J. Physiology, vol. 168, p. 178 (1963). The aggregometer was adjusted in sensitivity to give light transmission values of 0 and 100% for PRP and PPP, respectively. With stirring at 1000 rpm, 0.3 μl of test compound solution or vehicle was added to 0.3 ml of PRP. After the mixture was kept at 37° C. for 2 minutes, to the mixture was added 3 μl PAF (Serdary Research Lab.) at the final concentration of 1.8×10^-7 M and the light transmission was recorded for 5 minutes.
In all experiments, PAF was dissolved in ethanol at the concentration of 100 μg/ml, and, when used, diluted with 0.9% saline solution.
The inhibition percentage of test compounds on platelet aggregation were calculated from the following formula by measuring the maximal light transmission in the presence and absence of the test compounds. [formula]
IC50 (μg/ml, concentration of 50% inhibition) was graphically determined.

[2] = test system: PAF-induced platelet aggregation; assay: Inhibitory effect on platelet aggregation in rabbits (ex vivo test); conditions: Oryctolagus cuniculus, po, rabbit, 1 mg/kg orally, 24 hours, read-out: percentage of inhibition of platelet aggregation at 24 hours after oral administration
Procedure: Test compound (1 mg/kg) was orally administered to rabbit instead of adding it to PRP as in vitro test of Experiment 1, and then the citrated blood samples (9 volumes of blood+1 volume of 3.8% sodium citrate) were collected with the passage of time. Then, the blood samples were employed to determine the inhibitory effect on platelet aggregation according to Experiment 1. The percentage of inhibition at 24 hours after the oral administration of the compound of Example 2 was 100%.

PAF-induced lethal shock = assay: Effect on PAF-induced lethal shock in mice; assay type: in vivo; conditions: Mus musculus; male ICR mice, oral 1 hour before 80 μg/kg PAF i.v., survival over 24 hours; read-out: ED50 (p.o.), PAF-induced lethal shock
Procedure: The experiment was carried out according to the method of Young et al. described in Prostaglandins, Vol. 30, p. 545 (1985). Groups of 9 to 15 male ICR mice (Charles River) weighing 25-30 g were used. 80 μg/kg of PAF (Serdary Research Lab.) solution was intravenously administered in a lateral tail vein 1 hour after the oral administration of test compound (0.1 ml/10 g). […] The ED50 (mg/kg, p.o.) of the compound of Example 2 was 0.01 mg/kg.

## Cc1nnc2n1-c1sc(CCC(=O)N3CCOCC3)cc1C(c1ccccc1Cl)=NC2 [4-(2-chlorophenyl)-9-methyl-6H-thieno-[3,2-f][1,2,4]triazolo[4,3-a][1,4]diazepine-2-propionic acid morpholide]
PAF
  antagonistic activity on PAF: exhibit antagonistic activity on PAF

## CCc1cc2c(s1)-n1c(C)nnc1CN=C2c1ccccc1Cl [Etizolam, 6-(o-chlorophenyl)-8-ethyl-1-methyl-4H-s-triazolo[3,4-c]thieno[2,3-e][1,4]diazepine]
PAF
  antagonistic activity on PAF: exhibits antagonistic activity on PAF

## Cc1nnc2n1-c1sc(CCc3ccc(C(O)C(C)C)cc3)cc1C(c1ccccc1Cl)=NC2C (stereo not drawn) [Example 2, 4-(2-chlorophenyl)-2-[2-(4-(1-hydroxy-2-methylpropyl)phenyl)ethyl]-6,9-dimethyl-6H-thieno-[3,2-f][1,2,4]triazolo[4,3-a][1,4]diazepine]
[1]
  IC50: 0.01 to 0.03 µg/mL (≈ 0.0198 to 0.0594 µM)
[2]
  inhibition at 1 mg/kg: 100%
PAF-induced lethal shock
  ED50: 0.01 mg/kg

## Cc1nnc2n1-c1sc(CCc3ccc(CC(C)(C)O)cc3)cc1C(c1ccccc1Cl)=NC2C (stereo not drawn) [Example 3, 4-(2-chlorophenyl)-2-[2-(4-(2-hydroxy-2-methylpropyl)phenyl)ethyl]-6,9-dimethyl-6H-thieno[3,2-f][1,2,4]triazolo[4,3-a][1,4]diazepine]
[1]
  IC50: 0.01 to 0.03 µg/mL (≈ 0.0198 to 0.0594 µM)

## Cc1nnc2n1-c1sc(CCc3ccc(CC(C)CO)cc3)cc1C(c1ccccc1Cl)=NC2C (stereo not drawn) [Example 4, 4-(2-chlorophenyl)-2-[2-(4-(3-hydroxy-2-methylpropyl)phenyl)ethyl]-6,9-dimethyl-6H-thieno[3,2-f][1,2,4]triazolo[4,3-a][1,4]diazepine]
[1]
  IC50: 0.03 to 0.1 µg/mL (≈ 0.0594 to 0.198 µM)

## Cc1nnc2n1-c1sc(CCc3ccc(C(=O)C(C)(C)O)cc3)cc1C(c1ccccc1Cl)=NC2C (stereo not drawn) [Example 5, 4-(2-chlorophenyl)-2-[2-(4-(2-hydroxy-2-methylpropionyl)phenyl)ethyl]-6,9-dimethyl-6H-thieno[3,2-f][1,2,4]triazolo[4,3-a][1,4]diazepine]
[1]
  IC50: 0.01 to 0.03 µg/mL (≈ 0.0193 to 0.0578 µM)

## Cc1nnc2n1-c1sc(CCc3ccc(C(O)C(C)(C)O)cc3)cc1C(c1ccccc1Cl)=NC2C (stereo not drawn) [Example 6, 4-(2-chlorophenyl)-2-[2-(4-(1,2-dihydroxy-2-methylpropyl)phenyl)ethyl]-6,9-dimethyl-6H-thieno[3,2-f][1,2,4]triazolo[4,3-a][1,4]diazepine]
[1]
  IC50: 0.03 to 0.1 µg/mL (≈ 0.0576 to 0.192 µM)
